Values after ≈ are worked out from the molar mass of the structure shown.
Columns and labels:
[1] = test system: C. glabrata (ATCC 90030); assay: Microdilution susceptibility assay (MIC); assay type: cell-based, Candida glabrata; conditions: Nakaseomyces glabratus, ATCC90030
Description: (§1) Compounds 1–10 were screened for their antimicrobial activity against gram-negative bacteria, gram-positive bacteria, and yeasts, listed in Table 1. Bacteria were grown in Mueller-Hinton Broth and yeasts were grown in Sabouraud Dextrose Broth (SDB) during experiments. Overnight cultures were prepared routinely by subculturing of stock culture onto Mueller-Hinton Agar for bacteria and Sabouraud Dextrose Agar for yeasts.
(§2) Microdilution susceptibility assay was used for the determination of antibacterial and anticandidal efficacy of compounds 1–10. Chloramphenicol and ketoconazole were used as positive controls for bacteria and yeasts, respectively. All experiments were designed according to the Clinical Laboratory Standards Institute (CLSI). All chemicals were dissolved in dimethyl sulfoxide (DMSO) to obtain stock solution (10 mg/mL). Two-fold serial dilutions (800, 400, 200...0.78 µg/mL) of the compounds were prepared from stock solutions with dH2O. 100 µL of each solution was transferred to 96-well microtiter plates and 100 µL of 10^6 CFU/mL of bacteria and 2 × 10^3 of CFU/mL yeast were added to related wells. As negative controls, wells including microorganisms without agents and wells including agents without microorganisms were used. The plates were kept at 35 °C for 18–20 h and the growth was determined with resazurin (20 mg/mL). Assays were carried out in triplicate.

[2] = test system: E. faecalis (ATCC 29212); assay: ATP luminescence microbial cell viability assay; assay type: cell-based, Enterococcus faecalis; conditions: 24 h treatment, result in words
Description: (§3) A model from BioTek Instruments Inc. combined with a BacTiter-Glo^TM Microbial Cell Viability assay (Promega Corp., Madison, WI, USA) was used to provide a sensitive and rapid method for determining the number of viable microbial cells in culture based on quantitation of the ATP present. […] After incubation, cultures were added into the wells (final concentration of bacteria was 5 × 10^5 CFU/mL and 2.5 × 10^6 CFU/mL for yeasts). After adding the BacTiter reagent, incubation time for bacteria and yeasts was 5 min and 15 min, respectively.
The assay generates a “glow-type” luminescent signal, produced by the luciferase reaction. Briefly, after chemicals and strains were incubated for 24 h, 100 µL of the culture was taken from each well and mixed with the same volume of the BacTiter-Glo™ reagent in a white, opaque-walled microtiter plate. Control wells containing medium without cells were prepared to obtain a value for background luminescence. Cells without compound were used as an ATP-positive control. The microplates were further incubated under agitation for 7 min. Bioluminescence was recorded in a multi-detection microplate reader (BioTek Synergy 2 Multi-Mode Microplate Reader, BioTek Instruments, Winooski, VT, USA). In Figure 3, results were given as percentage of untreated control, which is set at 100%. Experiments were performed in triplicate and each sample was measured in four replicates.

[3] = test system: C6 rat glioma cell line; assay: MTT assay; assay type: cell-based; conditions: Rattus norvegicus, C6
Description: (§4) The anticancer effects of compounds 1–10 on A549 human lung adenocarcinoma (ATCC® CCL-185™), HepG2 human hepatocellular carcinoma (ATCC® HB-8065™), and C6 rat glioma (ATCC® CCL107™) cell lines were assessed using 3-(4,5-Dimethylthiazol-2-yl)-2,5-diphenyltetrazolium bromide (MTT) assay, whereas the selectivity of compounds 1–10 was tested using NIH/3T3 mouse embryonic fibroblast cell line (ATCC® CRL-1658™, London, UK). All cell lines were incubated according to the supplier’s recommendations. The cells were seeded as 1 × 10^4 cells into each well of the 96-well plates. MTT assay was performed as previously described. The compounds were tested between the concentrations equal to 1 mM and 0.000316 mM (1.0, 0.316, 0.10, 0.0316, 0.01, 0.00316, 0.001, 0.000316 mM). Stock solutions of compounds were prepared in dimethyl sulfoxide (DMSO) and further dilutions were made with fresh culture medium. The final DMSO concentration was under 1% [34] and cisplatin was used as a positive control. Inhibition % was calculated for each concentration according to the formula below, and IC50 values were determined by plotting a dose–response curve of inhibition % versus compound concentrations tested. All experiments were performed in quadruplicate.Inhibition % = 100 − [(ODtest compound − ODblank/ODsolvent control − ODblank)] × 100(1)

[4] = test system: NIH/3T3 mouse embryonic fibroblast cell line; assay: MTT assay; assay type: cell-based; conditions: Mus musculus, NIH3T3, healthy cells for selectivity
Description: as §4

[5] = test system: A549 human lung adenocarcinoma cell line; assay: MTT assay; assay type: cell-based; conditions: Homo sapiens, A549
Description: as §4

[6] = test system: HepG2 human hepatocellular carcinoma cell line; assay: MTT assay; assay type: cell-based; conditions: Homo sapiens, HepG2
Description: as §4

[7] = test system: E. faecalis (ATCC 51299); assay: Microdilution susceptibility assay (MIC); assay type: cell-based; conditions: Enterococcus faecalis, ATCC51299
Description: as §1, §2

[8] = test system: S. aureus (ATCC 25923); assay: Microdilution susceptibility assay (MIC); assay type: cell-based; conditions: Staphylococcus aureus, ATCC25923
Description: as §1, §2

[9] = test system: E. faecalis (ATCC 29212); assay: Microdilution susceptibility assay (MIC); assay type: cell-based; conditions: Enterococcus faecalis, ATCC29212
Description: as §1, §2

[10] = test system: E. coli (ATCC 25922); assay: Microdilution susceptibility assay (MIC); assay type: cell-based; conditions: Escherichia coli, ATCC25922
Description: as §1, §2

[11] = test system: K. pneumoniae (ATCC 700603); assay: Microdilution susceptibility assay (MIC); assay type: cell-based; conditions: Klebsiella pneumoniae, ATCC700603
Description: as §1, §2

[12] = test system: C. albicans (ATCC 90028); assay: Microdilution susceptibility assay (MIC); assay type: cell-based; conditions: Candida albicans, ATCC90028
Description: as §1, §2

[13] = test system: C. albicans; assay: ATP luminescence microbial cell viability assay; assay type: cell-based, Candida albicans; conditions: 24 h treatment, result in words
Description: as §3
The assay generates a “glow-type” luminescent signal, produced by the luciferase reaction. Briefly, after chemicals and strains were incubated for 24 h, 100 µL of the culture was taken from each well and mixed with the same volume of the BacTiter-Glo™ reagent in a white, opaque-walled microtiter plate. Control wells containing medium without cells were prepared to obtain a value for background luminescence. Cells without compound were used as an ATP-positive control. The microplates were further incubated under agitation for 7 min. Bioluminescence was recorded in a multi-detection microplate reader (BioTek Synergy 2 Multi-Mode Microplate Reader, BioTek Instruments, Winooski, VT, USA). […] Experiments were performed in triplicate and each sample was measured in four replicates.

[14] = test system: C. parapsilosis (ATCC 22019); assay: Microdilution susceptibility assay (MIC); assay type: cell-based, Candida parapsilosis; conditions: Lodderomyces parapsilosis, ATCC22019
Description: as §1, §2

[15] = test system: C. krusei (ATCC 6258); assay: Microdilution susceptibility assay (MIC); assay type: cell-based, Candida krusei; conditions: Pichia kudriavzevii, ATCC6258
Description: as §1, §2

MIC [1]: 100 µg/mL (≈ 310 µM)
IC50 [3]: > 322 µg/mL
IC50 [5]: > 322 µg/mL
IC50 [6]: 27 µg/mL (≈ 83.8 µM)
MIC [7]: 200 µg/mL (≈ 621 µM)
MIC [8]: 100 µg/mL (≈ 310 µM)
MIC [9]: 100 µg/mL (≈ 310 µM)
MIC [10]: 100 µg/mL (≈ 310 µM)
MIC [11]: 200 µg/mL (≈ 621 µM)
MIC [12]: 50 µg/mL (≈ 155 µM)
melting point: 94 to 95 °C
MIC [14]: 50 µg/mL (≈ 155 µM)
MIC [15]: 100 µg/mL (≈ 310 µM)
Structure (SMILES): Cn1cccc1C(=O)C=Cc1ccc(-c2ccccc2[N+](=O)[O-])o1 [Compound 3, 1-(1-Methyl-1H-pyrrol-2-yl)-3-(5-(2-nitrophenyl)furan-2-yl)prop-2-en-1-one]
antimicrobial activity in ATP bioluminescence assay [2]: sensitive
IC50 [4]: > 322 µg/mL
antifungal activity in ATP bioluminescence assay [13]: no statistically significant effects
